12 molecules from patent publication US20260028326A1, “COMPOUND BASED ON ISOINDOLINE-SUBSTITUTED GLUTARIMIDE BACKBONE AND USE THEREOF” (GLUETACS THERAPEUTICS (SHANGHAI) CO., LTD., priority 2022, published 2026) can be followed below.

pIC50: −log10 of the molar value.

The target of one test is IKZF3 protein (Homo sapiens (Human), UniProt Q96SW2+Q9UKT9). Put plainly: Western-blot assay of substrate protein degradation in hPBMC, IKZF3. The conditions noted are these: for residual substrate protein level, IKZF3: hPBMC cells, compound 500 nM, 24 hours, Western blot. Type of test: cell-based. The protocol: (§1) After treating the cells with the compounds for 24 hours, the cells were collected and lysed using RIPA protein lysate containing phosphatase inhibitors. The lysate was then placed on ice for 30-60 minutes and centrifuged. The supernatant was aspirated as the extracted total cell protein. The protein concentration of the supernatant was determined using the conventional BCA (Bicinchoninic Acid) assay. The supernatant was then mixed with 4×SDS sample loading buffer, denatured at 95° C. for 5 minutes, and then subjected to SDS-PAGE electrophoresis on a polyacrylamide gel, followed by transfer to a nitrocellulose membrane (NC membrane). The membrane was blocked with blocking buffer at room temperature for 1-2 hours, and then antibody incubation and detection were carried out according to the antibody instructions provided by Cell Signaling Technology.
(§2) Half-Maximal Degradation Concentration value (the drug concentration required for degrading proteins by 50%, abbreviated as DC50) reads method: comparing the gray values of the Western blotting bands for the drug treatment with the gray values of the Western blotting band for the DMSO control, and reading the drug concentration range corresponding to the gray value of the Western blotting bands for the drug treatment which is equal to half of the gray value of the Western blotting band for the DMSO control.
(§3) DC50 value could also be calculated as follows: using software ImageJ to quantify the gray values of the Western blotting bands for the drug treatment, fitting the relationship curve between drug concentrations and gray values, and from the fitted curve, calculating the drug concentration corresponding to half of the gray value of the Western blotting band for the DMSO control.
In general terms: In western blotting, separated proteins are transferred to a membrane and probed.

A further test addresses GSPT1 protein (Homo sapiens (Human), UniProt P15170+Q96SW2). Kind of test: Western-blot assay of substrate protein degradation in hPBMC, GSPT1. Type of test: cell-based. The conditions noted are these: for residual substrate protein level, GSPT1: hPBMC cells, compound 500 nM, 24 hours, Western blot. The method, then:
as §1, §2, §3

The next test deals with IKZF1 protein (Homo sapiens (Human), UniProt Q13422+Q96SW2). Put plainly: Western-blot assay of substrate protein degradation in hPBMC, IKZF1. The class given is cell-based. The conditions noted are these: for residual substrate protein level, IKZF1: hPBMC cells, compound 500 nM, 24 hours, Western blot. The protocol:
as §1, §2, §3

Test [1] concerns the target human Cereblon WT GST-tagged protein (Homo sapiens (Human), UniProt Q96SW2). Kind of test: CRBN-binding affinity, HTRF (CEREBLON BINDING kit). In short, it runs like this:
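HTRF competition readout: compounds compete with a thalidomide-Re conjugate for GST-tagged wild-type human CRBN detected via Eu-labelled anti-GST antibody. Inhibition rate derived relative to protein-free blank wells.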
Background: TR-FRET usually uses a lanthanide donor and a delayed reading to cut background.

Where [2] appears, read: hPBMC, 24 h, serially diluted 0.03-1000 nM.

Sequence of IKZF3 protein (Q9UKT9 whole entry): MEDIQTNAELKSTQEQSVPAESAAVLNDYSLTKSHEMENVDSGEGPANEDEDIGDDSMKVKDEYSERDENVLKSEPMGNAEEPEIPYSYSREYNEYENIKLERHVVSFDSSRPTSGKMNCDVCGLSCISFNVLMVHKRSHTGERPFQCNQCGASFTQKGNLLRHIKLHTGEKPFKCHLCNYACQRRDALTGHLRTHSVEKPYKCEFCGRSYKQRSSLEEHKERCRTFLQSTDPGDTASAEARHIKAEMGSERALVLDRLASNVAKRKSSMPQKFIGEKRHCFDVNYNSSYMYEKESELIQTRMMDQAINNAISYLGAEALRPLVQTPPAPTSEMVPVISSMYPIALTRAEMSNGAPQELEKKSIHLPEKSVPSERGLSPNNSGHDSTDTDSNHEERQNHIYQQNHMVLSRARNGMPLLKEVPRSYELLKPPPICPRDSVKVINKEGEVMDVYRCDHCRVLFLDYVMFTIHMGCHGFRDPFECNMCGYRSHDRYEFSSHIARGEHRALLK
Sequence of IKZF3 protein (Q96SW2 whole entry): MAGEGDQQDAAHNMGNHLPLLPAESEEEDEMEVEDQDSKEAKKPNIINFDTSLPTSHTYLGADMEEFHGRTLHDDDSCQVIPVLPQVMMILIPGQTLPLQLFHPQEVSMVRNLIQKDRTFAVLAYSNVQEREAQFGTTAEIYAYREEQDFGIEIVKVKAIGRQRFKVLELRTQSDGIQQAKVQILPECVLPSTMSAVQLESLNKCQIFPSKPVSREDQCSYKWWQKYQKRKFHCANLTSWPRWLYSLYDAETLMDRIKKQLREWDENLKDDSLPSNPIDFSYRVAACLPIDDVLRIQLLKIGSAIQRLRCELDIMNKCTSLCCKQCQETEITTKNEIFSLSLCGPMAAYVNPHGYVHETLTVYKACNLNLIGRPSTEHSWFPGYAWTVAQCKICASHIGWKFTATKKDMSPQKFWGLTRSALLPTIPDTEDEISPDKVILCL
Sequence of IKZF3 protein (Q16531 whole entry partner): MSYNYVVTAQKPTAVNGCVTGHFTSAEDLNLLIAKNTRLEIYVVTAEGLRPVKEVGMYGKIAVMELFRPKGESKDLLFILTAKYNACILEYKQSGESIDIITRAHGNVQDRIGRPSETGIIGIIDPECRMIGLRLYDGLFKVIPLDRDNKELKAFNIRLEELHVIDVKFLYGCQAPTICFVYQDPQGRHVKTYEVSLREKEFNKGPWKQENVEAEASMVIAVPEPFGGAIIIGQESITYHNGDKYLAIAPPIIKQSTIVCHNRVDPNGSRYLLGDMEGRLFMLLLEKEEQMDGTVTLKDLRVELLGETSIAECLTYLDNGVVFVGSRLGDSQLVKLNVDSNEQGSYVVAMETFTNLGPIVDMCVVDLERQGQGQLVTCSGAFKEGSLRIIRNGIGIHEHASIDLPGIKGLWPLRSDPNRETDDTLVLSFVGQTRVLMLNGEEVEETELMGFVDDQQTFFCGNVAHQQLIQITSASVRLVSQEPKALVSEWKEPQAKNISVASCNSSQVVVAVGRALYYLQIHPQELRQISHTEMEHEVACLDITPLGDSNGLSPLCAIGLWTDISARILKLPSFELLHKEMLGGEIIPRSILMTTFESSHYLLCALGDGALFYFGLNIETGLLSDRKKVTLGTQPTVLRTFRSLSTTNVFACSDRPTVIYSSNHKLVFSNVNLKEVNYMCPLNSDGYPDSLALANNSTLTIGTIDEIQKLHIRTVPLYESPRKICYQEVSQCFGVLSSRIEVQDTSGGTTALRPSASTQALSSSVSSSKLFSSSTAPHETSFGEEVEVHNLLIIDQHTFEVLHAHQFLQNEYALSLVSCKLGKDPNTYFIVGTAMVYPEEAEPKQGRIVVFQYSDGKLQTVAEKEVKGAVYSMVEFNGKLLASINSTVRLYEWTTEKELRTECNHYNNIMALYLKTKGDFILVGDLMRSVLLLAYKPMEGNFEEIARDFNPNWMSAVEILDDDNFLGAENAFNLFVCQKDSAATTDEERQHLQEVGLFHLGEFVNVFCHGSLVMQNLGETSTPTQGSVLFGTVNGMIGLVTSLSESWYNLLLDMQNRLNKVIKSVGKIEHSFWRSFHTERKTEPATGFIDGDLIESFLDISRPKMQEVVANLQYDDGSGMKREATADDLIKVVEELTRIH
Sequence of GSPT1 protein (P15170 whole entry): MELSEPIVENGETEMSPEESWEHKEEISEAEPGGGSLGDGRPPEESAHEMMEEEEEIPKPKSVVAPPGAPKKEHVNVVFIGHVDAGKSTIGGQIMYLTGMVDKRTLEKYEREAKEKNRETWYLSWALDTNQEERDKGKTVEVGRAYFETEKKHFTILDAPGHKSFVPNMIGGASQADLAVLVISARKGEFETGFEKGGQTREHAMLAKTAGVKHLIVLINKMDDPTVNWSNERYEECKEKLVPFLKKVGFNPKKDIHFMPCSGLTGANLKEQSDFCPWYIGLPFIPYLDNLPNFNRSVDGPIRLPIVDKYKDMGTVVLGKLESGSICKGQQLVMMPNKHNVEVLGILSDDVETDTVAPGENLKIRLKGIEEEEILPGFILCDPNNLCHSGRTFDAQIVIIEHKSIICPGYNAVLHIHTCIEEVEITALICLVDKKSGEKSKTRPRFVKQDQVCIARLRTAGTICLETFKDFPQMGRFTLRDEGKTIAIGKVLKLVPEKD
Sequence of GSPT1 protein (Q96SW2 whole entry): as the sequence (Q96SW2 whole entry) above
Sequence of GSPT1 protein (Q16531 whole entry partner): as the sequence (Q16531 whole entry partner) above
Sequence of IKZF1 protein (Q13422 whole entry): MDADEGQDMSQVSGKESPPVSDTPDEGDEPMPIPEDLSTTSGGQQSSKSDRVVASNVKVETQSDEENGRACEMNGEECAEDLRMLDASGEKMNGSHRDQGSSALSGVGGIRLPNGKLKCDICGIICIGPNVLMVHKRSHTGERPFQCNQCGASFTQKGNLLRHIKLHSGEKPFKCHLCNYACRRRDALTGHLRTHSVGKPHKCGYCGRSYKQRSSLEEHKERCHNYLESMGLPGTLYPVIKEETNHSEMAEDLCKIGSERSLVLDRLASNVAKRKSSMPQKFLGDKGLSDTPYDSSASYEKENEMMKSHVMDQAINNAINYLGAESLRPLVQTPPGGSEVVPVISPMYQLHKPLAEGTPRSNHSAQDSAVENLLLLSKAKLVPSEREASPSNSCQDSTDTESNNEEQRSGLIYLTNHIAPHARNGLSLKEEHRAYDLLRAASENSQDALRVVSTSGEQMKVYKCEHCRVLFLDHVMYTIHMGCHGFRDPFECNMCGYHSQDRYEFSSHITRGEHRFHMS
Sequence of IKZF1 protein (Q96SW2 whole entry): as the sequence (Q96SW2 whole entry) above
Sequence of IKZF1 protein (Q16531 whole entry partner): as the sequence (Q16531 whole entry partner) above
Sequence of human Cereblon WT GST-tagged protein (Q96SW2 whole entry): as the sequence (Q96SW2 whole entry) above

In the case of `O=C1CCC(N2Cc3cc(C=C4CN(Cc5ccccc5-c5ccc(Cl)cc5)C4)ccc3C2=O)C(=O)N1` (stereo not drawn) [GT-03881, 3-(5-((1-((4′-chloro-[1,1′-biphenyl]-2-yl)methyl)azetidin-3-ylidene)methyl)-1-oxoisoindolin-2-yl)piperidine-2,6-dione], the “residual substrate protein level, IKZF3” value on IKZF3 protein is given as “B (B represents a residual substrate protein level of >50%)”. The “residual substrate protein level, GSPT1” value at GSPT1 protein is reported as “A (A represents a residual substrate protein level of <50%)”. At IKZF1 protein, the “residual substrate protein level, IKZF1” value is on record as “B (B represents a residual substrate protein level of >50%)”. Moreover, the negative-log IC50 (pIC50) (usually the negative decadic logarithm of the IC50, by convention in mol/L) in test [1] is 6.32.

For the molecule `CC1(C)CCC(CN2CC3CCC(C2)N3Cc2ccc3c(c2F)CN(C2CCC(=O)NC2=O)C3=O)=C(c2ccc(Cl)cc2)C1` (stereo not drawn) [GT-03890, 3-(5-((3-((4′-chloro-5,5-dimethyl-3,4,5,6-tetrahydro-[1,1′-biphenyl]-2-yl)methyl)-3,8-diazabicyclo[3.2.1]octan-8-yl)methyl)-4-fluoro-1-oxoisoindolin-2-yl)piperidine-2,6-dione], the “residual substrate protein level, IKZF3” value on IKZF3 protein is listed as “A (A represents a residual substrate protein level of <50%)”. The “residual substrate protein level, GSPT1” value on GSPT1 protein is listed as “A (A represents a residual substrate protein level of <50%)”. Besides, the “residual substrate protein level, IKZF1” value at IKZF1 protein is “B (B represents a residual substrate protein level of >50%)”. Moreover, the negative-log IC50 (pIC50) in test [1] was 6.29.

In the case of `CC1(C)CCC(CN2C[C@@H]3C[C@H]2CN3Cc2ccc3c(c2)CN(C2CCC(=O)NC2=O)C3=O)=C(c2ccc(Cl)cc2)C1` (stereo partly drawn) [GT-03997, 3-(5-(((1S,4S)-5-((4′-chloro-5,5-dimethyl-3,4,5,6-tetrahydro-[1,1′-biphenyl]-2-yl)methyl)-2,5-diazabicyclo[2.2.1]heptan-2-yl)methyl)-1-oxoisoindolin-2-yl)piperidine-2,6-dione], at IKZF3 protein, the “residual substrate protein level, IKZF3” value was “A (A represents a residual substrate protein level of <50%)”. In addition, at GSPT1 protein, the “residual substrate protein level, GSPT1” value is “B (B represents a residual substrate protein level of >50%)”. The “residual substrate protein level, IKZF1” value at IKZF1 protein is listed as “A (A represents a residual substrate protein level of <50%)”. In test [1], the pIC50 is 6.11.

`CC1(C)CCC(CN2CC3CCC2CN3Cc2ccc3c(c2)CN(C2CCC(=O)NC2=O)C3=O)=C(c2ccc(Cl)cc2)C1` (stereo not drawn) [GT-04167, 3-(5-((5-((4′-chloro-5,5-dimethyl-3,4,5,6-tetrahydro-[1,1′-biphenyl]-2-yl)methyl)-2,5-diazabicyclo[2.2.2]octan-2-yl)methyl)-1-oxoisoindolin-2-yl)piperidine-2,6-dione]: the “residual substrate protein level, IKZF3” value at IKZF3 protein is on record as “B (B represents a residual substrate protein level of >50%)”. Further, the “residual substrate protein level, GSPT1” value on GSPT1 protein was “B (B represents a residual substrate protein level of >50%)”. Moreover, on IKZF1 protein, the “residual substrate protein level, IKZF1” value is recorded as “B (B represents a residual substrate protein level of >50%)”. This molecule also showed a pIC50 in test [1] of 6.18.

Take `CC1(C)CCC(CN2CC3CCC2CN3Cc2ccc3c(c2F)CN(C2CCC(=O)NC2=O)C3=O)=C(c2ccc(Cl)cc2)C1` (stereo not drawn) [GT-04168, 3-(5-((5-((4′-chloro-5,5-dimethyl-3,4,5,6-tetrahydro-[1,1′-biphenyl]-2-yl)methyl)-2,5-diazabicyclo[2.2.2]octan-2-yl)methyl)-4-fluoro-1-oxoisoindolin-2-yl)piperidine-2,6-dione]: the “residual substrate protein level, IKZF3” value on IKZF3 protein is recorded as “B (B represents a residual substrate protein level of >50%)”. Moreover, the “residual substrate protein level, GSPT1” value on GSPT1 protein is “A (A represents a residual substrate protein level of <50%)”. Further, the “residual substrate protein level, IKZF1” value on IKZF1 protein is given as “B (B represents a residual substrate protein level of >50%)”. This molecule also had a negative logarithm of the IC50 (pIC50) in test [1] of 6.26.

`O=C1CCC(N2Cc3cc(CN4CCN(CC5=C(c6ccc(F)cc6)CCCC5)CC4)ccc3C2=O)C(=O)N1` (stereo not drawn) [GT-04193, 3-(5-((4-((4′-fluoro-3,4,5,6-tetrahydro-[1,1′-biphenyl]-2-yl)methyl)piperazin-1-yl)methyl)-1-oxoisoindolin-2-yl)piperidine-2,6-dione]: on IKZF3 protein, the “residual substrate protein level, IKZF3” value is given as “A (A represents a residual substrate protein level of <50%)”. Also, the “residual substrate protein level, GSPT1” value at GSPT1 protein is on record as “A (A represents a residual substrate protein level of <50%)”. In addition, the “residual substrate protein level, IKZF1” value at IKZF1 protein is reported as “A (A represents a residual substrate protein level of <50%)”. In addition, the negative-log IC50 (pIC50) in test [1] was 6.34.

In the case of `O=C1CCC(N2Cc3cc(CN4CCN(C(=O)c5ccccc5-c5ccc(F)cc5)CC4)ccc3C2=O)C(=O)N1` (stereo not drawn) [GT-04194, 3-(5-((4-(4′-fluoro-[1,1′-biphenyl]-2-carbonyl)piperazin-1-yl)methyl)-1-oxoisoindolin-2-yl)piperidine-2,6-dione], the “residual substrate protein level, IKZF3” value on IKZF3 protein is recorded as “A (A represents a residual substrate protein level of <50%)”. On IKZF3 protein (setting [2]), the “concentration at which significant degradation effects on IKZF3 protein are exhibited (FIG. 1)” value is on record as “below 30 nM”. Moreover, the “residual substrate protein level, GSPT1” value on GSPT1 protein is “A (A represents a residual substrate protein level of <50%)”. For the same molecule, at GSPT1 protein (setting [2]), the “concentration at which significant degradation effects on GSPT1 protein are exhibited (FIG. 1)” value is listed as “below 30 nM”. The “residual substrate protein level, IKZF1” value at IKZF1 protein is listed as “B (B represents a residual substrate protein level of >50%)”. Also, the “concentration at which significant degradation effects on IKZF1 protein are exhibited (FIG. 1)” value at IKZF1 protein (setting [2]) is “below 30 nM”. The pIC50 in test [1] is 5.94.

Regarding `O=C1CCC(N2Cc3cc(CN4CCN(Cc5ccncc5-c5ccc(Cl)cc5)CC4)ccc3C2=O)C(=O)N1` (stereo not drawn) [GT-04275, 3-(5-((4-((3-(4-chlorophenyl)pyridin-4-yl)methyl)piperazin-1-yl)methyl)-1-oxoisoindolin-2-yl)piperidine-2,6-dione], at IKZF3 protein, the “residual substrate protein level, IKZF3” value is “A (A represents a residual substrate protein level of <50%)”. In addition, the “residual substrate protein level, GSPT1” value at GSPT1 protein is “A (A represents a residual substrate protein level of <50%)”. The “residual substrate protein level, IKZF1” value at IKZF1 protein is given as “A (A represents a residual substrate protein level of <50%)”. Also, in test [1], the negative logarithm of the IC50 (pIC50) was 6.34.

Turning to `CC1(C)CCC(CN2CC3CC(C2)N3Cc2ccc3c(c2)C(=O)N(C2CCC(=O)NC2=O)C3=O)=C(c2ccc(Cl)cc2)C1` (stereo not drawn) [GT-05368, 5-((3-((4′-chloro-5,5-dimethyl-3,4,5,6-tetrahydro-[1,1′-biphenyl]-2-yl)methyl)-3,6-diazabicyclo[3.1.1]heptan-6-yl)methyl)-2-(2,6-dioxopiperidin-3-yl)isoindoline-1,3-dione], the “residual substrate protein level, IKZF3” value on IKZF3 protein is “A (A represents a residual substrate protein level of <50%)”. Also, the “residual substrate protein level, GSPT1” value at GSPT1 protein is “A (A represents a residual substrate protein level of <50%)”. Further, the “residual substrate protein level, IKZF1” value at IKZF1 protein was “B (B represents a residual substrate protein level of >50%)”. The molecule further had a pIC50 in test [1] of 5.74.

On to `CC1(C)CCC(CN2CCN(Cc3ccc4c(c3)C(=O)N(C3CCC(=O)NC3=O)C4=O)CC2)=C(c2ccc(F)cc2)C1` (stereo not drawn) [GT-05395, 2-(2,6-dioxopiperidin-3-yl)-5-((4-((4′-fluoro-5,5-dimethyl-3,4,5,6-tetrahydro-[1,1′-biphenyl]-2-yl)methyl)piperazin-1-yl)methyl)isoindoline-1,3-dione], for which, on IKZF3 protein, the “residual substrate protein level, IKZF3” value is “A (A represents a residual substrate protein level of <50%)”. At GSPT1 protein, the “residual substrate protein level, GSPT1” value is listed as “A (A represents a residual substrate protein level of <50%)”. Moreover, the “residual substrate protein level, IKZF1” value on IKZF1 protein is reported as “B (B represents a residual substrate protein level of >50%)”. The same molecule showed a pIC50 in test [1] of 5.79.

As for `CC1(C)CCC(CN2CC3CC(C2)N3Cc2ccc3c(c2)CN(C2CCC(=O)NC2=O)C3=O)=C(c2ccc(F)cc2)C1` (stereo not drawn) [GT-05399, 3-(5-((3-((4′-fluoro-5,5-dimethyl-3,4,5,6-tetrahydro-[1,1′-biphenyl]-2-yl)methyl)-3,6-diazabicyclo[3.1.1]heptan-6-yl)methyl)-1-oxoisoindolin-2-yl)piperidine-2,6-dione], the “residual substrate protein level, IKZF3” value at IKZF3 protein was “B (B represents a residual substrate protein level of >50%)”. The “residual substrate protein level, GSPT1” value on GSPT1 protein is recorded as “A (A represents a residual substrate protein level of <50%)”. For the same molecule, the “residual substrate protein level, IKZF1” value at IKZF1 protein is given as “B (B represents a residual substrate protein level of >50%)”. In addition, the pIC50 in test [1] is 6.37.

`CC1(C)CCC(CN2CC3CCC(C2)N3Cc2ccc3c(c2)CN(C2CCC(=O)NC2=O)C3=O)=C(c2ccc(F)cc2)C1` (stereo not drawn) [GT-05400, 3-(5-((3-((4′-fluoro-5,5-dimethyl-3,4,5,6-tetrahydro-[1,1′-biphenyl]-2-yl)methyl)-3,8-diazabicyclo[3.2.1]octan-8-yl)methyl)-1-oxoisoindolin-2-yl)piperidine-2,6-dione]: at IKZF3 protein, the “residual substrate protein level, IKZF3” value is listed as “B (B represents a residual substrate protein level of >50%)”. In addition, the “residual substrate protein level, GSPT1” value on GSPT1 protein was “A (A represents a residual substrate protein level of <50%)”. In addition, the “residual substrate protein level, IKZF1” value on IKZF1 protein is reported as “B (B represents a residual substrate protein level of >50%)”. The molecule also had a pIC50 in test [1] of 6.08.
